Experimental data reported in patent US7132425B2, “5-substituted-six-membered heteroaromatic glucokinase activators” (Hoffmann-La Roche Inc., priority 2002, dated 2006).
Blank lines part the entries; values can stand above or below the molecule they belong to.

What was measured:
[1] = test system: C57BL/6J mice; experiment: Glucokinase activator in vivo screen (blood glucose after oral dosing); conditions: oral gavage 50 mg/kg after two hour fast, readings 1, 2, 4 and 6 hours post dose, p≦0.05 for two consecutive assay time points
Method: Glucokinase Activator in vivo Screen Protocol: C57BL/6J mice are orally dosed via gavage with Glucokinase (GK) activator at 50 mg/kg body weight following a two hour fasting period. Blood glucose determinations are made five times during the six hour post-dose study period.
Mice (n=6) are weighed and fasted for a two hour period prior to oral treatment.

Structure (SMILES): CN(C)CC#Cc1cnc(NC(=O)[C@H](CC2CCCC2)c2ccc(S(C)(=O)=O)c(Cl)c2)cn1 [Example 11, 2(R)-(3-Chloro-4-methanesulfonyl-phenyl)-3-cyclopentyl-N-[5-(3-dimethylamino-prop-1-ynyl)-pyrazin-2-yl]-propionamide]
decrease in blood glucose compared to vehicle [1]: statistically significant (p≦0.05) decrease in blood glucose

melting point: 102 to 106 °C
Structure (SMILES): C[S+]([O-])Cc1cnc(NC(=O)[C@H](CC2CCCC2)c2ccc(S(C)(=O)=O)c(Cl)c2)cn1 (stereo partly drawn) [Example 38, 2(R)-(3-Chloro-4-methanesulfonyl-phenyl)-3-cyclopentyl-N-(5-methanesulfinylmethyl-pyrazin-2-yl)-propionamide]

Structure (SMILES): COCCOc1cnc(NC(=O)[C@H](CC2CCCC2)c2ccc(S(C)(=O)=O)c(Cl)c2)cn1 [Example 43, 2(R)-(3-Chloro-4-methanesulfonyl-phenyl)-3-cyclopentyl-N-5-(2-methoxyethoxy-pyrazin-2-yl)-propionamide]
decrease in blood glucose compared to vehicle [1]: statistically significant (p≦0.05) decrease in blood glucose

Structure (SMILES): COCC#Cc1cnc(NC(=O)[C@H](CC2CCCC2)c2ccc(S(C)(=O)=O)c(Cl)c2)cn1 [Example 47, 2(R)-(3-Chloro-4-methanesulfonyl-phenyl)-3-cyclopentyl-N-[5-(3-methoxy-prop-1-ynyl)-pyrazin-2-yl]-propionamide]
decrease in blood glucose compared to vehicle [1]: statistically significant (p≦0.05) decrease in blood glucose

Structure (SMILES): CS(=O)(=O)c1ccc([C@@H](CC2CCCC2)C(=O)Nc2cnc(NCCO)cn2)cc1Cl [Example 73, 2(R)-(3-Chloro-4-methanesulfonyl-phenyl)-3-cyclopentyl-N-[5-(2-hydroxy-ethylamino)-pyrazin-2-yl]-propionamide]
decrease in blood glucose compared to vehicle [1]: statistically significant (p≦0.05) decrease in blood glucose

Structure (SMILES): CS(=O)(=O)c1ccc([C@@H](CC2CCCC2)C(=O)Nc2cnc(C#CC3(O)CCOCC3)cn2)cc1 [Example 46, 3-Cyclopentyl-N-5-[(4-hydroxy-tetrahydropyran-4-yl-ethynyl)pyrazin-2-yl]-2(R)-(4-methanesulfonyl-phenyl)-propionamide]
decrease in blood glucose compared to vehicle [1]: statistically significant (p≦0.05) decrease in blood glucose

Structure (SMILES): CS(=O)(=O)c1ccc([C@@H](CC2CCCC2)C(=O)Nc2cnc(C#CCCO)cn2)cc1Cl [Example 53, 2(R)-(3-Chloro-4-methanesulfonyl-phenyl)-3-cyclopentyl-N-[5-(4-hydroxy-but-1-ynyl)-pyrazin-2-yl]-propionamide]
decrease in blood glucose compared to vehicle [1]: statistically significant (p≦0.05) decrease in blood glucose

Structure (SMILES): CS(=O)(=O)c1ccc([C@@H](CC2CCCC2)C(=O)Nc2cnc(C(O)C#N)cn2)cc1Cl (stereo partly drawn) [Example 26, 2(R)-(3-Chloro-4-methanesulfonyl-phenyl)-N-[5-(cyano-hydroxy-methyl)-pyrazin-2-yl]-3-cyclopentyl-propionamide]
decrease in blood glucose compared to vehicle [1]: statistically significant (p≦0.05) decrease in blood glucose

Structure (SMILES): CS(=O)(=O)c1ccc([C@@H](CC2CCCC2)C(=O)Nc2cnc(C3OCCO3)cn2)cc1Cl [Example 41, 2(R)-(3-Chloro-4-methanesulfonyl-phenyl)-3-cyclopentyl-N-(5-[1,3]dioxolan-2-yl-pyrazin-2-yl)-propionamide]
decrease in blood glucose compared to vehicle [1]: statistically significant (p≦0.05) decrease in blood glucose

Structure (SMILES): CN(C)CCCc1cnc(NC(=O)[C@H](CC2CCCC2)c2ccc(S(C)(=O)=O)c(Cl)c2)cn1 [Example 16, 2(R)-(3-Chloro-4-methanesulfonyl-phenyl)-3-cyclopentyl-N-[5-(3-dimethylamino-propyl)-pyrazin-2-yl]-propionamide]
decrease in blood glucose compared to vehicle [1]: statistically significant (p≦0.05) decrease in blood glucose

Structure (SMILES): CC(C)(O)C#Cc1cnc(NC(=O)[C@H](CC2CCCC2)c2ccc(S(C)(=O)=O)cc2)cn1 [Example 61, 3-Cyclopentyl-2(R)-(4-methanesulfonyl-phenyl)-N-[5-(3-hydroxy-3-methyl-but-1-ynyl)-pyrazin-2-yl]-propionamide]
decrease in blood glucose compared to vehicle [1]: statistically significant (p≦0.05) decrease in blood glucose

Structure (SMILES): C/C(=N/O)c1cnc(NC(=O)[C@H](CC2CCCC2)c2ccc(S(C)(=O)=O)c(Cl)c2)cn1 [Example 28, 2(R)-(3-Chloro-4-methanesulfonyl-phenyl)-3-cyclopentyl-N-[5-(1-(Z)-hydroxyimino-ethyl)-pyrazin-2-yl]-propionamide]
decrease in blood glucose compared to vehicle [1]: statistically significant (p≦0.05) decrease in blood glucose

Structure (SMILES): Cc1cc([C@@H](CC2CCCC2)C(=O)Nc2cnc([C@H](O)CO)cn2)ccc1S(C)(=O)=O [Example 58, 3-Cyclopentyl-N-[5-1(S),2-dihydroxy-ethyl]-2(R)-(4-methanesulfonyl-3-methyl)-propionamide]
decrease in blood glucose compared to vehicle [1]: statistically significant (p≦0.05) decrease in blood glucose

Structure (SMILES): CS(=O)(=O)c1ccc(C(CC2CCCC2)C(=O)Nc2cnc(CC3SC(=O)NC3=O)cn2)cc1Cl (stereo not drawn) [Example 19, 2-(3-Chloro-4-methanesulfonyl-phenyl)-3-cyclopentyl-N-[5-(2,4-dioxo-thiazolidin-5-ylmethyl)-pyrazin-2-yl]-propionamide]
decrease in blood glucose compared to vehicle [1]: statistically significant (p≦0.05) decrease in blood glucose

Structure (SMILES): CS(=O)(=O)c1ccc([C@@H](CC2CCCC2)C(=O)Nc2cnc(C3=CCCCO3)cn2)cc1Cl [Example 75, 2(1R)-(3-Chloro-4-methanesulfonyl-phenyl)-3-cyclopentyl-N-[5-(5,6-dihydro-4H-pyran-2-yl)-pyrazin-2-yl]-propionamide]
decrease in blood glucose compared to vehicle [1]: statistically significant (p≦0.05) decrease in blood glucose

Structure (SMILES): Cc1cc([C@@H](CC2CCCC2)C(=O)Nc2cnc(C#CC(C)(C)O)cn2)ccc1S(C)(=O)=O [Example 57, 3-Cyclopentyl-N-[5-(3-hydroxy-3-methyl-but-1-ynyl)-pyrazin-2-yl]-2(R)-(4-methanesulfonyl-3-methyl-phenyl)-propionamide]
decrease in blood glucose compared to vehicle [1]: statistically significant (p≦0.05) decrease in blood glucose

Structure (SMILES): CS(=O)(=O)c1ccc([C@@H](CC2CCCC2)C(=O)Nc2cnc([C@H](O)CO)cn2)cc1Cl [Example 54, 2(R)-(3-Chloro-4-methanesulfonyl-phenyl)-3-cyclopentyl-N-[5-(1(S),2-dihydroxy-ethyl)-pyrazin-2-yl]-propionamide]
decrease in blood glucose compared to vehicle [1]: statistically significant (p≦0.05) decrease in blood glucose

Structure (SMILES): CS(=O)(=O)c1ccc([C@@H](CC2CCCC2)C(=O)Nc2cnc(C#CCO)cn2)cc1Cl [Example 10, 2(R)-(3-Chloro-4-methanesulfonyl-phenyl)-3-cyclopentyl-N-[5-(3-hydroxy-prop-1-ynyl)-pyrazin-2-yl]-propionamide]
decrease in blood glucose compared to vehicle [1]: statistically significant (p≦0.05) decrease in blood glucose

Structure (SMILES): CS(=O)(=O)c1ccc([C@@H](CC2CCCC2)C(=O)Nc2cnc(-c3ccco3)cn2)cc1Cl [Example 70, 2(R)-(3-Chloro-4-methanesulfonyl-phenyl)-3-cyclopentyl-N-(5-furan-2-yl-pyrazin-2-yl)-propionamide]
decrease in blood glucose compared to vehicle [1]: statistically significant (p≦0.05) decrease in blood glucose

Structure (SMILES): COC(OC)c1cnc(NC(=O)[C@H](CC2CCCC2)c2ccc(S(C)(=O)=O)c(Cl)c2)cn1 [Example 21, 2(R)-(3-Chloro-4-methanesulfonyl-phenyl)-3-cyclopentyl-N-(5-dimethoxymethyl-pyrazin-2-yl)-propionamide]
decrease in blood glucose compared to vehicle [1]: statistically significant (p≦0.05) decrease in blood glucose

Structure (SMILES): CS(=O)(=O)c1ccc([C@@H](CC2CCCC2)C(=O)Nc2cnc(CCC3(O)CCOCC3)cn2)cc1Cl [Example 51, 2(R)-(3-Chloro-4-methanesulfonyl-phenyl)-3-cyclopentyl-N-[5-(4-hydroxy-tetrahydropyran-4-yl-ethyl)-pyrazin-2-yl]-propionamide]
decrease in blood glucose compared to vehicle [1]: statistically significant (p≦0.05) decrease in blood glucose

Structure (SMILES): CS(=O)(=O)c1ccc([C@@H](CC2CCCC2)C(=O)Nc2cnc([C@@H](O)CO)cn2)cc1Cl [Example 55]
decrease in blood glucose compared to vehicle [1]: statistically significant (p≦0.05) decrease in blood glucose

Structure (SMILES): CC(=O)c1cnc(NC(=O)C(CC2CCCC2)c2ccc(S(C)(=O)=O)c(Cl)c2)cn1 (stereo not drawn) [Example 23, N-(5-Acetyl-pyrazin-2-yl)-2-(3-chloro-4-methanesulfonyl-phenyl)-3-cyclopentyl-propionamide]
decrease in blood glucose compared to vehicle [1]: statistically significant (p≦0.05) decrease in blood glucose

Structure (SMILES): Cc1cc([C@@H](CC2CCCC2)C(=O)Nc2cnc(C#CC3(O)CCOCC3)cn2)ccc1S(C)(=O)=O [Example 59, 3-Cyclopentyl-N-[5-(4-hydroxy-tetrahydro-pyran-4-ylethynyl)-pyrazin-2-yl]-2(R)-(4-methanesulfonyl-3-methyl-phenyl)-propionamide]
decrease in blood glucose compared to vehicle [1]: statistically significant (p≦0.05) decrease in blood glucose

Structure (SMILES): CS(=O)(=O)c1ccc([C@@H](CC2CCCC2)C(=O)Nc2cnc(OCCO)cn2)cc1Cl [Example 62, 2(R)-(3-Chloro-4-methanesulfonyl-phenyl)-3-cyclopentyl-N-[5-(2-hydroxy-ethoxy)-pyrazin-2-yl]-propionamide]
decrease in blood glucose compared to vehicle [1]: statistically significant (p≦0.05) decrease in blood glucose

Structure (SMILES): CS(=O)(=O)c1ccc(C(CC2CCCC2)C(=O)Nc2cnc(C=O)cn2)cc1Cl (stereo not drawn) [Example 18, 2-(3-Chloro-4-methanesulfonyl-phenyl)-3-cyclopentyl-N-(5-formyl-pyrazin-2-yl)-propionamide]
decrease in blood glucose compared to vehicle [1]: statistically significant (p≦0.05) decrease in blood glucose

Structure (SMILES): CS(=O)(=O)c1ccc([C@@H](CC2CCCC2)C(=O)Nc2ccc(C3CCCO3)cn2)cc1Cl (stereo partly drawn) [Example 69, 2(R)-(3-Chloro-4-methanesulfonyl-phenyl)-3-cyclopentyl-N-[5-(tetrahydro-furan-2-yl)-pyridin-2-yl]-propionamide]
decrease in blood glucose compared to vehicle [1]: statistically significant (p≦0.05) decrease in blood glucose
